Test results taken from ChEMBL document CHEMBL5360608 (ACS Med Chem Lett, 2023).
Active and inactive are the calls of the source. The calls are words filed in the database; no cut-off is given here.

Legend:
[1] = target: T1, Sodium channel protein type 4 subunit alpha (Homo sapiens, UniProt P35499); assay: Inhibition of human Nav 1.4 expressed in HEK293T cells assessed as tonic block at 0.1 Hz by whole cell patch clamp assay; format: cell-based
[2] = target: T1, Sodium channel protein type 4 subunit alpha; assay: Inhibition of human Nav 1.4 expressed in HEK293T cells assessed as phasic block at 10 Hz by whole cell patch clamp assay; format: cell-based
[3] = species on record: Homo sapiens; assay: Selectivity ratio of IC50 for human Nav 1.4 expressed in HEK293T cells assessed as tonic block at 0.1 Hz to IC50 for human Nav 1.4 expressed in HEK293T cells assessed as phasic block at 10 Hz; format: cell-based
[4] = target: T2, Sodium channel protein type 9 subunit alpha (Homo sapiens, UniProt Q15858); assay: Inhibition of human Nav 1.7 expressed in HEK293T cells assessed as tonic block at 0.1 Hz by whole cell patch clamp assay; format: cell-based
[5] = target: T2, Sodium channel protein type 9 subunit alpha; assay: Inhibition of human Nav 1.7 expressed in HEK293T cells assessed as phasic block at 10 Hz by whole cell patch clamp assay; format: cell-based
[6] = species on record: Homo sapiens; assay: Selectivity ratio of IC50 for human Nav 1.7 expressed in HEK293T cells assessed as tonic block at 0.1 Hz to IC50 for human Nav 1.7 expressed in HEK293T cells assessed as phasic block at 10 Hz; format: cell-based
[7] = test system: Mus musculus; assay: Analgesic activity in po dosed mouse assessed as licking latency at 77 uM measured after 15 mins by hot plate test (reference value: 14.5 to 15.7 sec); format: functional; settings: 0.25 h
[8] = test system: Mus musculus; assay: Analgesic activity in po dosed mouse assessed as licking latency at 77 uM measured after 30 mins by hot plate test (reference value: 14.5 to 15.7 sec); format: functional; settings: 0.5 h
[9] = test system: Mus musculus; assay: Analgesic activity in po dosed mouse assessed as licking latency at 77 uM measured after 45 mins by hot plate test (reference value: 14.5 to 15.7 sec); format: functional; settings: 0.75 h
[10] = test system: Mus musculus; assay: Analgesic activity in po dosed mouse assessed as licking latency at 77 uM measured after 60 mins by hot plate test (reference value: 14.5 to 15.7 sec); format: functional; settings: 1 h
[11] = test system: Mus musculus; assay: Analgesic activity in po dosed mouse assessed as alterations in motor coordination at high dose by hot plate test; format: functional, organism-based
[12] = test system: Mus musculus; assay: Analgesic activity in po dosed mouse assessed as alteration in spontaneous motility at high dose by hot plate test; format: functional, organism-based
[13] = species on record: Rattus norvegicus; assay: Reduction in 9-anthracene carboxylic acid induced myotonic-like condition in Wistar rat skeletal muscle fiber by measuring electable action potential at 0.3 to 10 uM by two intracellular microelectrode current-clamp method; format: functional, tissue-based; settings: Skeletal muscle tissue, dose 0.3-10 µM
[14] = species on record: Rattus norvegicus; assay: Reduction in 9-anthracene carboxylic acid induced myotonic-like condition in Wistar rat skeletal muscle fiber by measuring electable action potential at upto 10 uM by two intracellular microelectrode current-clamp method; format: functional, tissue-based; settings: Skeletal muscle tissue

T2 sequence (Q15858 whole entry): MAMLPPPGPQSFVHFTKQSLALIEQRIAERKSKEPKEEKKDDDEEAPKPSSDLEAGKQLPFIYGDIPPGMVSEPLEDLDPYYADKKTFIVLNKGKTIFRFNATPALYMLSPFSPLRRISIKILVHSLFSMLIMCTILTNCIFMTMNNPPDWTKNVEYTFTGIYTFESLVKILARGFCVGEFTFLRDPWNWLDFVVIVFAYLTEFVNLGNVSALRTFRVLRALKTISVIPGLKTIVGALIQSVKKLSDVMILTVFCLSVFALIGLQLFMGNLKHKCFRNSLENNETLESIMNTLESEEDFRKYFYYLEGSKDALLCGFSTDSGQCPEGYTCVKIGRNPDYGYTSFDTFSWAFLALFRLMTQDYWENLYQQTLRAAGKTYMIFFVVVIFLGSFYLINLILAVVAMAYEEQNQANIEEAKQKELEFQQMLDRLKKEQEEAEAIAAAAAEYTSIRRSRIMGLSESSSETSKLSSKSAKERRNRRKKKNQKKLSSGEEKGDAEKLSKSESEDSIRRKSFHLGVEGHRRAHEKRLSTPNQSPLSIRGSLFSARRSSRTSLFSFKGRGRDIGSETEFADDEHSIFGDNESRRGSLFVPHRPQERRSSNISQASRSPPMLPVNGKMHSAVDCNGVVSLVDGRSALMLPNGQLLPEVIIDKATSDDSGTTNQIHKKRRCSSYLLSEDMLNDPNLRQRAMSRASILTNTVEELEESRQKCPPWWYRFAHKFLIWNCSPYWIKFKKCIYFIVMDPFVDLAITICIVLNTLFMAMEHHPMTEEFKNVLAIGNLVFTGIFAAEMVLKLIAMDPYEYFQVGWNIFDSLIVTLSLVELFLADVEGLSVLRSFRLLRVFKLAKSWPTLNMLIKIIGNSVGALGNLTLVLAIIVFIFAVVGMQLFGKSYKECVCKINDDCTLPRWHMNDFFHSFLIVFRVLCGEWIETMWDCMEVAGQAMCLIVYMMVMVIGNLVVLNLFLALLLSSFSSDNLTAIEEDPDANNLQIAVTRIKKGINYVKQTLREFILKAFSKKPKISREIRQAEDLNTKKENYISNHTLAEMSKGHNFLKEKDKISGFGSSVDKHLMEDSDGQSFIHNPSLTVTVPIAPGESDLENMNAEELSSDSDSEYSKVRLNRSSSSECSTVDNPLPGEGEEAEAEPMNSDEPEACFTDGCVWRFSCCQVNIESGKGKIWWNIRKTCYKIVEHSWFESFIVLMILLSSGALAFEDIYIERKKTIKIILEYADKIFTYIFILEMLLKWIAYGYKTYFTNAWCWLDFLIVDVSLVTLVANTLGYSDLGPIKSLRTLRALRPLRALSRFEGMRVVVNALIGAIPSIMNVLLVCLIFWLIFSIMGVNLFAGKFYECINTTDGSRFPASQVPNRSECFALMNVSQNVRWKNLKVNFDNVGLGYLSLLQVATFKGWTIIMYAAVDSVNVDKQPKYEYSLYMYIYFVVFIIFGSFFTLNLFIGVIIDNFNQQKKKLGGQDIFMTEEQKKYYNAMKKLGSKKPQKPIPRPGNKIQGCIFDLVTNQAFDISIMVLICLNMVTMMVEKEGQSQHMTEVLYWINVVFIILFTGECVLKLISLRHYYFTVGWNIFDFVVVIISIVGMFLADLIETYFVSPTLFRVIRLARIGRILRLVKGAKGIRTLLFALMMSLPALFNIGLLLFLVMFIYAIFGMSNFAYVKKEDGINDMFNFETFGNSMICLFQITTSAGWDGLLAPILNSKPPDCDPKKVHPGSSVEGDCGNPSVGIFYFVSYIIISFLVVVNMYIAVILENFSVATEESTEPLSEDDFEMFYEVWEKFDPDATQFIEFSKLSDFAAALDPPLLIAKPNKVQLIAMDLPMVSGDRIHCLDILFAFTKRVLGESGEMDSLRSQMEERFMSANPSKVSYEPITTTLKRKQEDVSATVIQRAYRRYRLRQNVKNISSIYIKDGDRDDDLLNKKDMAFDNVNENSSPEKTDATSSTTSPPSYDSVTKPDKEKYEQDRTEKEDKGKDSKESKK
T1 sequence (P35499 whole entry): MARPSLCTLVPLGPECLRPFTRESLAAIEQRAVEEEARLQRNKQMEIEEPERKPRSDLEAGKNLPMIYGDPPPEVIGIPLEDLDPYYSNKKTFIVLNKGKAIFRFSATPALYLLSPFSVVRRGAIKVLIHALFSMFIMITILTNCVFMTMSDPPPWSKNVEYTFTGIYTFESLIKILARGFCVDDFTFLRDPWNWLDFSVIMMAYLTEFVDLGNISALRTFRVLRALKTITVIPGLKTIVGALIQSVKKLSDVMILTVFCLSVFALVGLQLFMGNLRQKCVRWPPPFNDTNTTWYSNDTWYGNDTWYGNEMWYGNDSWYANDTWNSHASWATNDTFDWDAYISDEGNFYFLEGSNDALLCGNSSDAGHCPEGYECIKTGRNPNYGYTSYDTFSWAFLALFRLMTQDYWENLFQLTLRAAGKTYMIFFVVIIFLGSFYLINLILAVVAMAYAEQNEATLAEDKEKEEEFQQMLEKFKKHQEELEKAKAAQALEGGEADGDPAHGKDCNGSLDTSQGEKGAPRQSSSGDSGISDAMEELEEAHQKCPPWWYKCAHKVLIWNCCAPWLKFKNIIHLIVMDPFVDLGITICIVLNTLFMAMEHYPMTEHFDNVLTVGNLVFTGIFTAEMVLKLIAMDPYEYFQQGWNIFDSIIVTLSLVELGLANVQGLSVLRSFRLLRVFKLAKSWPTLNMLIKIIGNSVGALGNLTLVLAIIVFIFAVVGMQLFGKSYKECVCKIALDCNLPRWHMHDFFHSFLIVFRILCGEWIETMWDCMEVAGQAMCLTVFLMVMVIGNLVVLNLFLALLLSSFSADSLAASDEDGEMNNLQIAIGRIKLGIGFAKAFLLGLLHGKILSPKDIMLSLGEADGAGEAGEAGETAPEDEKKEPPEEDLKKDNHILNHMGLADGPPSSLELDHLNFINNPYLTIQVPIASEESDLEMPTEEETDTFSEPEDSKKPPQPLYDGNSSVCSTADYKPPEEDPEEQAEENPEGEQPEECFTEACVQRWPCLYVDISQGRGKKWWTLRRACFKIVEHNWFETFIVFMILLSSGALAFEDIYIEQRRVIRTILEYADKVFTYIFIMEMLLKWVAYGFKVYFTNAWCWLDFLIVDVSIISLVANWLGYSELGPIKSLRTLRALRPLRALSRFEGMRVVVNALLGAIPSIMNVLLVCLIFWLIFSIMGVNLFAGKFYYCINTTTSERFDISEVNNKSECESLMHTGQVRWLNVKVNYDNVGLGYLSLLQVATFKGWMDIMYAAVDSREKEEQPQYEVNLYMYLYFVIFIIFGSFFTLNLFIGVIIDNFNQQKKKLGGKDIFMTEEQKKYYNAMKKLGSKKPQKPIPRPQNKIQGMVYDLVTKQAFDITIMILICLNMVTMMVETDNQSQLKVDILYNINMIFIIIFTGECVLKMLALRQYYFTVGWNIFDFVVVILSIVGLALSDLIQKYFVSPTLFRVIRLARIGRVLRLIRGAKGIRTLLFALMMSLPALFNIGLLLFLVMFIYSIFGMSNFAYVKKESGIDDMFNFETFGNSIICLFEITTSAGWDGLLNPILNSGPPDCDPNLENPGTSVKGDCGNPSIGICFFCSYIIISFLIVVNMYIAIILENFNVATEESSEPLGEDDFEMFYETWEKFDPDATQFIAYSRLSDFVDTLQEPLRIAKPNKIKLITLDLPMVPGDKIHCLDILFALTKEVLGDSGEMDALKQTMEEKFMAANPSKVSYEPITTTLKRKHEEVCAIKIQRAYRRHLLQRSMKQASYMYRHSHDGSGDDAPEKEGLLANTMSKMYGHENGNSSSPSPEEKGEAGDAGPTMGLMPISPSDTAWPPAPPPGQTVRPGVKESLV

| SMILES | IC50 [1] [µM] | IC50 [2] [µM] | Ratio IC50 [3] | IC50 [4] [µM] | IC50 [5] [µM] | Ratio IC50 [6] | Activity [7] [s] | Activity [8] [s] | Activity [9] [s] | Activity [10] [s] | Activity [11] | Activity [12] | Activity [13] | Activity [14] |
| --- | --- | --- | --- | --- | --- | --- | --- | --- | --- | --- | --- | --- | --- | --- |
| Nc1nc2ccc(C(F)(F)F)cc2s1 | 58 | 53 | 1.1 | – | – | – | – | – | – | – | – | – | – | – |
| FC(F)(F)Oc1ccc2nc(N3CCNCC3)sc2c1 | 95 | 38 | 2.5 | 52 | 24 | 2.2 | 16.8 | 18.8 | 17.3 | 15.5 | – | – | – | – |
| Nc1nc2ccc(OC(F)(F)F)cc2s1 [RILUZOLE] | 63 | 51 | – | – | – | – | 20.5 | 25.6 | 24.3 | 18.3 | inactive | inactive | Active | – |
| CC(C)c1ccc2nc(N)sc2c1 | 118 | 89 | 1.3 | – | – | – | – | – | – | – | – | – | – | – |
| CNCCN(C)c1nc2ccc(OC(F)(F)F)cc2s1 | – | – | – | – | – | – | 17.8 | 18 | 16.6 | 16 | – | – | – | – |
| c1ccc(Oc2ccc3nc(N4CCNCC4)sc3c2)cc1 | 250 | 63 | 4 | 106 | 48 | 2.2 | 21.6 | 26.2 | 23.1 | 19.9 | inactive | inactive | – | inactive |
